Results: patent US20050003422A1, “Methods for assessing and treating cancer” (priority 2003, published 2005)

Tested on: AML patients
Experiment: Clinical response of relapsed or refractory AML patients treated with the FTI
Format: in vivo, human
Details: of a total of 199 evaluable AML patients; 600 mg b.i.d. oral, first 21 days of each 28 day cycle
Method: In the nonprophetic examples, AML patients were administered 600 mg of (R)-6-[amino(4-chlorophenyl)(1-methyl-1H-imidazol-5-yl)methyl]-4-(3-chlorophenyl)-1-methyl-2(1H)-quinolinone) (referred to as Zamestra™) at a starting oral dose of 600 mg b.i.d. for the first 21 days of each 28 day cycle in AML. Subjects were enrolled into two cohorts, those with relapsed AML and those with refractory AML. A total of […] patients (135 relapsed and 117 refractory) were treated.
Anti-leukemic activity is defined as any bone marrow blast count less than 5% or a reduction in bone marrow blasts by at least half.
The average value of the site and DCL blast count measurements were calculated and a Student's t-test was performed to investigate if blast counts correlated with patient response in the AML patients. […] Chi-squared analysis for all evaluable patients also found a significant correlation between high blast counts and resistance to treatment (Ω^2=9.53).

Cn1cncc1[C@@](N)(c1ccc(Cl)cc1)c1ccc2c(c1)c(-c1cccc(Cl)c1)cc(=O)n2C [Zamestra]
evaluable patients who had a CR, CRp, PR, or SD: 24
